{"source": "paper PMC2360244", "about": "(British Journal of Cancer, 2007)", "key": {"[1]": {"test_system": "ALL, AML, CLL, CML, lymphoma and myeloma tumour cells", "assay": "cells", "settings": "Homo sapiens, read-out: IC50 values, proliferation of haematological tumour cells (range over panel)", "description": "(§1) The effect of HDAC inhibitors on cell proliferation was measured using an MTT (3-(4,5-dimethyl-2-thiazolyl)-2,5-diphenyl-2H-tetrazolium bromide)-based assay (Serva, Heidelberg, Germany). Cells were seeded in Falcon or NUNC 96-well culture plates (Life Technologies, Merelbeke, Belgium) in 100 μl culture medium and allowed to adhere to plastic for 18–48 h. Test compounds were dissolved in DMSO and further dilutions were made in culture medium, with final concentrations of DMSO never exceeding 0.1% (v v^−1), and incubated for 4 days. Proliferation of NSCLC was assessed using Alamar Blue-based assay. Cells were seeded in COSTAR 384-well culture plates in 45 μl culture medium and allowed to adhere to plastic for 24 h. Alamar blue was added after 72 h, with the exception of HCC-15, HCC-44, NCI-H2122 and NCI-H460, where Alamar blue was added after 90 h and OD values were measured at 4 days following compound exposure. Data are presented as mean±s.d. of three independent experiments."}, "[2]": {"test_system": "A2780 ovarian carcinoma cells", "assay": "Cell-cycle analysis, propidium iodide staining and FACS", "format": "cell-based, human", "protocol": "Human A2780 ovarian carcinoma cells were seeded at 2 × 10^6 cells per 75-cm^2 flask and, after 24 h, incubated with the indicated concentration of test compound. To analyse cell-cycle distribution, sub-confluent cells were collected, centrifuged and washed with PBS. The cell pellets were re-suspended in citrate buffer and nuclei were stained with propidium iodide (Sigma-Aldrich, Bornem, Belgium) as described previously ([Vindelov et al, 1983]). Analysis was carried out using a BD-LSR flow cytometer (BD Biosciences, Erembodegem, Belgium) equipped with an argon laser (488 nm excitation). Cell-cycle profiles were analysed using WinList 3D version 4.0 and areas under the curve were calculated using ModFit LT version 3.1 (Verity Software House Inc.).\nDNA content of nuclei was evaluated using propidium iodide staining followed by FACS analysis, and the number of cells in sub-G1, G1, S and G2M phase was calculated as a percentage of control. Results are expressed as % of total cells and a representative experiment out of three is shown."}, "[3]": {"test_system": "H3 acetylation and p21waf1,cip1 in A2780 ovarian carcinoma cells", "assay": "Western blot of acetylated H3 and p21waf1,cip1 in A2780 cells (class I HDAC readout)", "format": "cell-based, human", "protocol": "Human A2780 ovarian carcinoma cells were incubated with the indicated concentrations of HDAC inhibitors. Total cell lysates were prepared and analysed by SDS–PAGE. […] To control for equal loading, blots were stripped and re-probed with mouse monoclonal antiactin IgM (Ab-1, Oncogene Research products, Merck, Darmstadt, Germany). […] Protein–antibody complexes were then visualised by chemiluminescence (Pierce Chemical Co., Perbioscience, Erembodegem, Belgium) or fluorescence (Odyssey) according to manufacturer's instructions.\nTotal cell lysates were prepared and analysed by SDS–PAGE. Levels of acetylated H3 and tubulin, and of total levels of H3 and tubulin and of p21^waf1, cip1 and Hsp70 and c-raf protein, were detected using rabbit polyclonal and mouse monoclonal antibodies, followed by ECL detection as indicated in the Methods section. To control for equal loading, blots were stripped and re-probed with antibodies against actin and the nuclear protein Lamin B1. A representative experiment out of three is shown."}, "[4]": {"test_system": "lung, breast, colon, prostate and ovarian tumour cell lines", "assay": "cells", "settings": "Homo sapiens, 96 h, read-out: IC50 values, cell proliferation of solid tumour cell lines (range over panel), lung, breast, colon, prostate and ovarian tumour cell lines; 4-day incubation", "description": "as §1"}, "[5]": {"test_system": "A2780 ovarian carcinoma cells", "assay": "Annexin V staining (apoptosis), FACS", "format": "cell-based, human", "settings": "48 h, concentration-dependent", "protocol": "Human A2780 ovarian carcinoma cells were seeded at 2 × 10^6 cells per 75-cm^2 flask and, after 24 h, incubated with the indicated concentration of test compound for 48 h. The cells were subsequently collected, centrifuged and washed with PBS. The cell pellets were stained with Annexin-V-FITC antibody and propidium iodide with a kit from PharMingen, BD Biosciences, Erembodegem, Belgium (cat 66121E).\nCells were stained with Annexin V (Pharmingen) and propidium iodide, and analysed by FACS. […] Membrane-damaged cells were defined as both Annexin V- and propidium iodide-positive. Shown are mean values±variation for two independent experiments. […] Green asterisks represent mitotic cells, while red arrows point at specific DNA fragmentation. (B) Rat Aortic Ring Assays were performed as described in the Methods section."}, "[6]": {"test_system": "A2780 ovarian carcinoma xenograft", "assay": "A2780 ovarian xenograft, tumour growth", "format": "in vivo, mice", "settings": "median tumour size at end of study", "protocol": "All mice used in the in vivo studies were athymic male NMRI nu/nu mice purchased from Janvier (France) and were treated according to the ethical guidelines prescribed by UKCCCR. A2780 ovarian, HCT116 colon and H460 lung carcinoma cells were injected s.c. (10^7 cells per 200 μl) into the inguinal region of Nude mice. […] Tumour size was determined using caliper measurement and tumour volume was determined by using the formula: TV=(a^2 × b)/2 (in which a represents the width and b the length).\nMice were treated orally once daily (q.d.) between day 4 and 28 (A2780) or between day 4 and 32 (H460 and HCT116). (A) A2780 ovarian tumours were measured at least twice a week throughout the study, and results are represented as the median tumour size, expressed in mm^3, of each individual group (n=10). (B) Mice were treated orally q.d. at the indicated doses. Results are represented as the treated/control values (%) of the median tumour size (n=10) at the end of the study."}, "[7]": {"test_system": "HDAC isotypes in partially purified extract from rat liver (MAL, unselective)", "settings": "read-out: Liver extract MAL unselective IC50, substrate MAL", "protocol": "After centrifugation, the cleared extract was used for immunoprecipitation of HDAC1. […] Incubation was performed for 45 min at 37°C (immunoprecipitates) or 30 min at room temperature (HeLa nuclear extract). Before addition of substrate, HDAC inhibitors were added at increasing concentrations and preincubated for 10 min at room temperature. After incubation, the reaction was quenched with 35 μl stop buffer (1 M HCl and 0.4 M acetic acid). Released [^3H]acetic acid was extracted with 800 μl ethyl acetate and quantified by scintillation counting. Equal amounts of HDAC1 were immunoprecipitated as indicated by western blot analysis. Histone deacetylase 1 activity results are presented as mean±s.d. of three independent experiments on a single lysate. […] Finally, we measured the activities of different HDAC isotypes present in partially purified extract from rat liver using the fluorescent HDAC substrates MAL (unselective), B61 (selective for HDAC1, and to some extent also converted by HDAC3) and B12 (selective for HDAC6)."}}}
{"smiles": "O=C(NO)c1cnc(N2CCN(S(=O)(=O)c3ccc4ccccc4c3)CC2)nc1", "note": "[R306465]", "values": [{"measurement": "IC50", "setting": "[1]", "value": "15 to 486", "unit": "nM"}, {"measurement": "G0–G1, % of total cells", "setting": "[2]; 0.1 μM, 24 h", "value": 44.6, "unit": "%"}, {"measurement": "G2–M, % of total cells", "setting": "[2]; 0.1 μM, 24 h", "value": 28.3, "unit": "%"}, {"measurement": "S-phase, % of total cells", "setting": "[2]; 0.1 μM, 24 h", "value": 27.1, "unit": "%"}, {"measurement": "G0–G1, % of total cells", "setting": "[2]; 0.1 μM, 48 h", "value": 64.4, "unit": "%"}, {"measurement": "G2–M, % of total cells", "setting": "[2]; 0.1 μM, 48 h", "value": 17.0, "unit": "%"}, {"measurement": "S-phase, % of total cells", "setting": "[2]; 0.1 μM, 48 h", "value": 18.6, "unit": "%"}, {"measurement": "G0–G1, % of total cells", "setting": "[2]; 0.3 μM, 24 h", "value": 76.5, "unit": "%"}, {"measurement": "G2–M, % of total cells", "setting": "[2]; 0.3 μM, 24 h", "value": 7.8, "unit": "%"}, {"measurement": "S-phase, % of total cells", "setting": "[2]; 0.3 μM, 24 h", "value": 15.7, "unit": "%"}, {"measurement": "G0–G1, % of total cells", "setting": "[2]; 0.3 μM, 48 h", "value": 67.2, "unit": "%"}, {"measurement": "G2–M, % of total cells", "setting": "[2]; 0.3 μM, 48 h", "value": 14.9, "unit": "%"}, {"measurement": "S-phase, % of total cells", "setting": "[2]; 0.3 μM, 48 h", "value": 17.9, "unit": "%"}, {"measurement": "G0–G1, % of total cells", "setting": "[2]; 1 μM, 24 h", "value": 55.4, "unit": "%"}, {"measurement": "G2–M, % of total cells", "setting": "[2]; 1 μM, 24 h", "value": 39.2, "unit": "%"}, {"measurement": "S-phase, % of total cells", "setting": "[2]; 1 μM, 24 h", "value": 5.4, "unit": "%"}, {"measurement": "G0–G1, % of total cells", "setting": "[2]; 1 μM, 48 h", "value": 45.5, "unit": "%"}, {"measurement": "G2–M, % of total cells", "setting": "[2]; 1 μM, 48 h", "value": 44.5, "unit": "%"}, {"measurement": "S-phase, % of total cells", "setting": "[2]; 1 μM, 48 h", "value": 10.0, "unit": "%"}, {"measurement": "concentration at which decrease in S phase with parallel increase in G1 phase was observed", "setting": "[2]; 24 h incubation", "value": 300, "unit": "nM"}, {"measurement": "concentration at which increase in the sub-G1 fraction was observed", "setting": "[2]; 24 h incubation", "value": 1, "unit": "µM"}, {"measurement": "concentration from which increase in sub-G1 phase was observed", "setting": "[2]; 48 h incubation", "value": "≥ 100", "unit": "nM"}, {"measurement": "concentration at which H3 acetylation is induced", "setting": "[3]; 24 h, western blot", "value": 100, "unit": "nM"}, {"measurement": "concentration at which p21waf1,cip1 is induced", "setting": "[3]; 24 h, western blot", "value": 100, "unit": "nM"}, {"measurement": "cellular potency for HDAC1 vs HDAC6 (higher for HDAC1)", "setting": "[3]; H3 acetylation vs tubulin acetylation", "value": 10, "unit": "fold"}, {"measurement": "IC50", "setting": "[4]", "value": "30 to 300", "unit": "nM"}, {"measurement": "percentage of cells positive for Annexin V", "setting": "[5]", "value": "significant increase"}, {"measurement": "T/C values (%) A2780 ovarian", "setting": "[6]; 10 mpk p.o. q.d. day 4 to 28", "value": 47, "unit": "%"}, {"measurement": "T/C values (%) A2780 ovarian", "setting": "[6]; 20 mpk p.o. q.d. day 4 to 28", "value": 13, "unit": "%"}, {"measurement": "T/C values (%) A2780 ovarian", "setting": "[6]; 40 mpk p.o. q.d. day 4 to 28", "value": 24, "unit": "%"}, {"measurement": "IC50", "setting": "[7]", "value": "886 ± 85", "unit": "nM"}]}
